Assay results reported in patent publication US11234971B2, “Methods of treating cancer comprising administration of a glucocorticoid receptor modulator and a cancer chemotherapy agent” (Corcept Therapeutics Incorporated, priority 2018, dated 2022).

Key:
[1] = tested on: OVCAR-5 human ovarian cancer cells; experiment: OVCAR-5 cell growth (Cell Titer-Glo) with chemotherapy agents with or without dexamethasone and relacorilant; assay type: cell-based; settings: for IC50 (decrease in IC50 of the agent from dexamethasone-alone to relacorilant + dexamethasone) / Max effect (increase in maximal cell toxicity of the agent from dexamethasone-alone to relacorilant + dexamethasone): OVCAR-5, 100 nM dexamethasone, 300 nM relacorilant; for Max effect (increase in maximal cell toxicity of the agent from dexamethasone-alone to relacorilant + dexamethasone): high doses of chemotherapeutic
Experimental: The initial cell density was chosen to be low enough to allow for several population doublings (typically 3 to 5) during the indicated incubation period. […] After 48 hours of incubation, serially diluted test agents in growth medium were added to each well. After 72 hours of culture, the plated cells and Cell Titer-Glo® (Promega G7571) reagents were brought to room temperature to equilibrate for 30 minutes. 200 μL of Cell Titer-Glo® reagent was then added to each well, the plate was shaken for two minutes, and then left to equilibrate for ten minutes. The Cell Titer-Glo® cell viability assay uses ATP levels to determine cell numbers. After this equilibration, luminescence was read on the Biotech Synergy II microplate reader. The percent control (% C) of cell growth for each test concentration was calculated relative to untreated wells. All tests were performed in quadruplicate. Individual assay plates were evaluated for appropriate signal and well-to-well variance in the control wells for quality control.

[2] = tested on: whole blood gene expression; experiment: Whole blood gene expression after 28 days of enzalutamide in cancer patients; assay type: in vivo; settings: human cancer patients, all p-values greater than 0.5
From the text: Enzalutamide is an androgen receptor antagonist used in the treatment of hormone-sensitive cancers such as prostate cancer. […] The small circular markers indicate the change in gene expression for individual genes. None of the gene expression levels changes following enzalutamide (as compared to baseline levels) reach significance (all p-values are greater than 0.5).

MIA PaCa-2 xenograft = MIA PaCa-2 xenograft tumor growth in immunodeficient mice; assay type: in vivo; settings: single agent
From the text: The present example, Example 3, provides results of administration of the glucocorticoid receptor modulator relacorilant to cancerous cells. […] The MIA PaCa-2 xenograft model uses MIA PaCa-2 cell-line cells (pancreatic tumor cells derived from a pancreatic adenocarcinoma from a patient) engrafted into immunodeficient mice. The ovarian OVCAR-5 cell line is derived from a human epithelial carcinoma of the ovary, and was established from ascitic fluid obtained (prior to cytotoxic treatment) from a patient with progressive ovarian adenocarcinoma.
FIG. 10A. Relacorilant sensitizes the MIA PaCa-2 xenograft to paclitaxel. Tumor volume of PaCa-2 xenograft tumors implanted in immunodeficient mice is shown as a function of time (days) after implantation in the presence of vehicle (filled circles), paclitaxel (7.5 mg/kg; filled squares), relacorilant alone (upwardly pointing triangles), and relacorilant+7.5 mg/kg paclitaxel (downwardly pointing triangles). 7.5 mg/kg paclitaxel was administered three times (at the days indicated by the dashed vertical lines, indicating days 8, 12, and 16 following tumor implantation into the mice).
FIG. 10B. Relacorilant with Paclitaxel Reduces MIA PaCa-2 xenograft Tumor Volume. Initial tumor volume of PaCa-2 xenograft tumors implanted in immunodeficient mice was less than 400 cubic millimeters (mm^3). […] Tumor size progression is thus indicated by lines descending from the top (100%) value. The tumor-bearing mice were treated with vehicle, relacorilant (30 mg/kg every day), paclitaxel (three doses of 7.5 mg/kg paclitaxel, one dose administered on each of the days indicated in FIG. 10A), and the combination relacorilant (30 mg/kg every day) with paclitaxel (7.5 mg/kg doses of paclitaxel each administered on days 8, 12, and 16 post implantation). […] Xenograft tumor growth was slowed by combined relacorilant+paclitaxel as compared to either paclitaxel alone or relacorilant alone. Relacorilant thus enhanced sensitivity to paclitaxel in the pancreatic MIA PaCa-2 xenograft model.

| Compound | IC50 (decrease in IC50 of the agent from dexamethasone-alone to relacorilant + dexamethasone) [1] | Max effect (increase in maximal cell toxicity of the agent from dexamethasone-alone to relacorilant + dexamethasone) [1] | other results |
| --- | --- | --- | --- |
| O=c1[nH]cc(F)c(=O)[nH]1 [5-FU] | + (~10-59% decrease in IC50 from the dexamethasone-alone to the relacorilant + dexamethasone treatments) | − |  |
| Cc1c[nH]c(-c2cnc(NCCNc3ccc(C#N)cn3)nc2-c2ccc(Cl)cc2Cl)n1 [CHIR-99021] | − | − |  |
| CCN(CC)CCCC(C)Nc1ccnc2cc(Cl)ccc12 (stereo not shown) [Chloroquine] | − |  |  |
| COc1cccc2c1C(=O)c1c(O)c3c(c(O)c1C2=O)C[C@@](O)(C(=O)CO)C[C@@H]3O[C@H]1C[C@H](N)[C@H](O)[C@H](C)O1 [Doxorubicin] | + (~10-59% decrease in IC50 from the dexamethasone-alone to the relacorilant + dexamethasone treatments) |  |  |
| C=C1C[C@@H]2CC[C@@]34C[C@H]5O[C@H]6[C@@H](O3)[C@H]3O[C@H](CC[C@@H]3O[C@H]6[C@H]5O4)CC(=O)C[C@@H]3[C@@H](OC)[C@@H](C[C@H](O)CN)O[C@H]3C[C@H]3O[C@@H](CC[C@@H]1O2)C[C@@H](C)C3=C [Eribulin] | ++ (>60% decrease in IC50 from the dexamethasone-alone to the relacorilant + dexamethasone treatments) |  |  |
| C#Cc1cccc(Nc2ncnc3cc(OCCOC)c(OCCOC)cc23)c1 [Erlotinib] | − |  |  |
| COc1cc([C@@H]2c3cc4c(cc3[C@@H](O[C@@H]3O[C@@H]5CO[C@@H](C)O[C@H]5[C@H](O)[C@H]3O)[C@H]3COC(=O)[C@H]23)OCO4)cc(OC)c1O [Etoposide] | + (~10-59% decrease in IC50 from the dexamethasone-alone to the relacorilant + dexamethasone treatments) | − |  |
| O=C(O)c1ccc(-c2c[nH]c3ncc(-c4ccccc4)cc23)cc1C1CCCC1 [GSK650394] | − | − |  |
| CCc1c2c(nc3ccc(OC(=O)N4CCC(N5CCCCC5)CC4)cc13)-c1cc3c(c(=O)n1C2)COC(=O)[C@]3(O)CC [Irinotecan] | + (~10-59% decrease in IC50 from the dexamethasone-alone to the relacorilant + dexamethasone treatments) | − |  |
| CS(=O)(=O)CCNCc1ccc(-c2ccc3ncnc(Nc4ccc(OCc5cccc(F)c5)c(Cl)c4)c3c2)o1 [Lapatinib] | + (~10-59% decrease in IC50 from the dexamethasone-alone to the relacorilant + dexamethasone treatments) | − |  |
| O=C(c1cc(Cc2n[nH]c(=O)c3ccccc23)ccc1F)N1CCN(C(=O)C2CC2)CC1 [Olaparib] | − | − |  |
| Nc1nc2[nH]cc(CCc3ccc(C(=O)N[C@@H](CCC(=O)O)C(=O)O)cc3)c2c(=O)[nH]1 [Pemetrexed] | ++ (>60% decrease in IC50 from the dexamethasone-alone to the relacorilant + dexamethasone treatments) |  |  |
| CC(C)(C)c1[nH]cnc1/C=c1\[nH]c(=O)/c(=C/c2ccccc2)[nH]c1=O [Plinabulin] | − |  |  |
| CC(=O)Nc1cccc(-n2c(=O)n(C3CC3)c(=O)c3c(Nc4ccc(I)cc4F)n(C)c(=O)c(C)c32)c1 [Trametinib] | − | − |  |
| CC1(C)CCC(CN2CCN(c3ccc(C(=O)NS(=O)(=O)c4ccc(NCC5CCOCC5)c([N+](=O)[O-])c4)c(Oc4cnc5[nH]ccc5c4)c3)CC2)=C(c2ccc(Cl)cc2)C1 [Venetoclax] | + (~10-59% decrease in IC50 from the dexamethasone-alone to the relacorilant + dexamethasone treatments) | − |  |
| CCC1=C[C@@H]2CN(C1)Cc1c([nH]c3ccccc13)[C@@](C(=O)OC)(c1cc3c(cc1OC)N(C)[C@H]1[C@@](O)(C(=O)OC)[C@H](OC(C)=O)[C@]4(CC)C=CCN5CC[C@]31[C@@H]54)C2 [Vinorelbine] | + (~10-59% decrease in IC50 from the dexamethasone-alone to the relacorilant + dexamethasone treatments) |  |  |
| N.N.O=C([O-])C1(C(=O)[O-])CCC1.[Pt+2] [carboplatin] |  |  | cell viability ([1]; OVCAR-5 with 100 nM dexamethasone, 1 nM to 2187 nM carboplatin): dose dependent |
| N.N.[Cl][Pt][Cl] [cisplatin] | + (~10-59% decrease in IC50 from the dexamethasone-alone to the relacorilant + dexamethasone treatments) | + (consistent ~0-40% increase in toxicity at high doses of chemotherapeutic from the dexamethasone-alone to the relacorilant + dexamethasone treatments) |  |
| CNC(=O)c1ccc(N2C(=S)N(c3ccc(C#N)c(C(F)(F)F)c3)C(=O)C2(C)C)cc1F [enzalutamide] |  |  | changes in gene expression levels compared to baseline [2]: did not result in any significant changes |
| CC(=O)O[C@H]1C(=O)[C@@]2(C)[C@H]([C@H](OC(=O)c3ccccc3)[C@]3(O)C[C@H](OC(=O)[C@H](O)[C@@H](NC(=O)c4ccccc4)c4ccccc4)C(C)=C1C3(C)C)[C@]1(OC(C)=O)CO[C@@H]1C[C@@H]2O [paclitaxel] |  |  | tumor growth (tumor volume over time) (MIA PaCa-2 xenograft; paclitaxel 7.5 mg/kg on days 8, 12 and 16): ineffective in delaying tumor growth; time to progression (fraction of tumors whose volume remained below 400 mm^3) (MIA PaCa-2 xenograft; relacorilant 30 mg/kg every day or paclitaxel 7.5 mg/kg on days 8, 12, 16): ineffective alone in delaying tumor growth |
